According to the NIST ThermoML archive (doi:10.1016/j.jct.2013.05.019):

Assay: xn = mol fraction of the nth substance listed
Details: 101 kPa, Liquid; for viscosity: Falling or rolling sphere viscometry; for mass density: Vibrating tube method; for electrical conductivity: Alternating current cell with electrodes

CC(=O)O.CCCCN [butylammonium acetate] + O
Details | electrical conductivity [S/m] | mass density [kg/m3] | viscosity [mPa·s]
293.15 K, x1 = 0.031 | – | 1009.89 | 2.659
293.15 K, x1 = 0.06 | – | 1015.91 | 4.018
293.15 K, x1 = 0.0992 | – | 1014.35 | 6.792
293.15 K, x1 = 0.2007 | – | 1003.86 | 16.91
293.15 K, x1 = 0.2999 | – | 993.39 | 35.04
293.15 K, x1 = 0.4013 | – | 984.8 | 53.35
293.15 K, x1 = 0.5004 | – | 977.72 | 101.3
293.15 K, x1 = 0.5666 | – | 974.54 | 141.64
293.15 K, x1 = 0.7973 | – | 964.56 | 390.26
293.15 K, x1 = 0.8972 | – | 962.15 | 579.35
293.15 K, x1 = 1 | – | 959.61 | 771.69
298.15 K, x1 = 0.0006 | 0.168 | – | –
298.15 K, x1 = 0.0012 | 0.316 | – | –
298.15 K, x1 = 0.0018 | 0.434 | – | –
298.15 K, x1 = 0.0026 | 0.572 | – | –
298.15 K, x1 = 0.0032 | 0.67 | – | –
298.15 K, x1 = 0.0046 | 0.842 | – | –
298.15 K, x1 = 0.0078 | 1.12 | – | –
298.15 K, x1 = 0.0121 | 1.34 | – | –
298.15 K, x1 = 0.0181 | 1.45 | – | –
298.15 K, x1 = 0.031 | – | 1006.58 | 2.328
298.15 K, x1 = 0.0329 | 1.54 | – | –
298.15 K, x1 = 0.06 | – | 1013.18 | 3.345
298.15 K, x1 = 0.0682 | 1.58 | – | –
298.15 K, x1 = 0.0992 | – | 1011.15 | 5.626
298.15 K, x1 = 0.0999 | 1.54 | – | –
298.15 K, x1 = 0.2001 | 1.16 | – | –
298.15 K, x1 = 0.2007 | – | 1000.82 | 13.83
298.15 K, x1 = 0.2999 | – | 990.34 | 28.14
298.15 K, x1 = 0.3479 | 0.513 | – | –
298.15 K, x1 = 0.4013 | – | 981.74 | 46.77
298.15 K, x1 = 0.5004 | – | 974.67 | 77.42
298.15 K, x1 = 0.5427 | 0.164 | – | –
298.15 K, x1 = 0.5666 | – | 971.45 | 102.65
298.15 K, x1 = 0.7973 | – | 961.46 | 283.43
298.15 K, x1 = 0.8065 | 0.074 | – | –
298.15 K, x1 = 0.8972 | – | 958.98 | 415.18
298.15 K, x1 = 1 | 0.021 | 956.44 | 546.35
303.15 K, x1 = 0.031 | – | 1003.24 | 2.196
303.15 K, x1 = 0.06 | – | 1009.87 | 2.864
303.15 K, x1 = 0.0992 | – | 1007.91 | 4.714
303.15 K, x1 = 0.2007 | – | 997.74 | 11.79
303.15 K, x1 = 0.2999 | – | 987.26 | 22.91
303.15 K, x1 = 0.4013 | – | 978.64 | 40.9
303.15 K, x1 = 0.5004 | – | 971.64 | 60.97
303.15 K, x1 = 0.5666 | – | 968.34 | 82.19
303.15 K, x1 = 0.7973 | – | 958.36 | 211.13
303.15 K, x1 = 0.8972 | – | 955.83 | 304.3
303.15 K, x1 = 1 | – | 953.33 | 397.17
308.15 K, x1 = 0.031 | – | 999.87 | 1.864
308.15 K, x1 = 0.06 | – | 1006.52 | 2.439
308.15 K, x1 = 0.0992 | – | 1004.62 | 3.985
308.15 K, x1 = 0.2007 | – | 994.62 | 9.893
308.15 K, x1 = 0.2999 | – | 984.17 | 18.78
308.15 K, x1 = 0.4013 | – | 975.55 | 35.59
308.15 K, x1 = 0.5004 | – | 968.58 | 48.93
308.15 K, x1 = 0.5666 | – | 965.22 | 65.48
308.15 K, x1 = 0.7973 | – | 955.23 | 160.94
308.15 K, x1 = 0.8972 | – | 952.69 | 227.72
308.15 K, x1 = 1 | – | 950.15 | 294.59
313.15 K, x1 = 0.031 | – | 996.47 | 1.665
313.15 K, x1 = 0.06 | – | 1003.14 | 2.132
313.15 K, x1 = 0.0992 | – | 1001.29 | 3.489
313.15 K, x1 = 0.2007 | – | 991.43 | 8.389
313.15 K, x1 = 0.2999 | – | 981.07 | 15.67
313.15 K, x1 = 0.4013 | – | 972.44 | 31
313.15 K, x1 = 0.5004 | – | 965.54 | 42.95
313.15 K, x1 = 0.5666 | – | 962.11 | 56.12
313.15 K, x1 = 0.7973 | – | 952.09 | 133.31
313.15 K, x1 = 0.8972 | – | 949.53 | 180.6
313.15 K, x1 = 1 | – | 946.98 | 222.24

CCCC[NH3+].O=[N+]([O-])[O-] [n-butylammonium nitrate] + O
Details | electrical conductivity [S/m] | mass density [kg/m3] | viscosity [mPa·s]
293.15 K, x1 = 0.1 | – | 1059.97 | 2.468
293.15 K, x1 = 0.2001 | – | 1081.27 | 4.454
293.15 K, x1 = 0.3009 | – | 1090.62 | 7.217
293.15 K, x1 = 0.4004 | – | 1095.83 | 11.69
293.15 K, x1 = 0.5011 | – | 1099.15 | 17.61
293.15 K, x1 = 0.6505 | – | 1102.02 | 31.21
293.15 K, x1 = 0.7869 | – | 1103.62 | 51.54
293.15 K, x1 = 0.9022 | – | 1104.42 | 78.32
293.15 K, x1 = 1 | – | 1104.68 | 111.35
298.15 K, x1 = 0.001 | 0.583 | – | –
298.15 K, x1 = 0.002 | 0.997 | – | –
298.15 K, x1 = 0.004 | 1.55 | – | –
298.15 K, x1 = 0.005 | 1.73 | – | –
298.15 K, x1 = 0.006 | 1.89 | – | –
298.15 K, x1 = 0.0081 | 2.18 | – | –
298.15 K, x1 = 0.02 | 2.95 | – | –
298.15 K, x1 = 0.03 | 3.19 | – | –
298.15 K, x1 = 0.05 | 3.4 | – | –
298.15 K, x1 = 0.0609 | 3.46 | – | –
298.15 K, x1 = 0.1 | 3.42 | 1056.89 | 2.221
298.15 K, x1 = 0.1999 | 3.31 | – | –
298.15 K, x1 = 0.2001 | – | 1078.05 | 3.908
298.15 K, x1 = 0.2997 | 2.95 | – | –
298.15 K, x1 = 0.3009 | – | 1087.35 | 6.297
298.15 K, x1 = 0.3999 | 2.52 | – | –
298.15 K, x1 = 0.4004 | – | 1092.56 | 10.08
298.15 K, x1 = 0.4998 | 2.08 | – | –
298.15 K, x1 = 0.5011 | – | 1095.89 | 15.1
298.15 K, x1 = 0.5986 | 1.77 | – | –
298.15 K, x1 = 0.6505 | – | 1098.8 | 26.25
298.15 K, x1 = 0.6979 | 1.45 | – | –
298.15 K, x1 = 0.7869 | – | 1100.42 | 42.46
298.15 K, x1 = 0.799 | 1.23 | – | –
298.15 K, x1 = 0.9001 | 1.01 | – | –
298.15 K, x1 = 0.9022 | – | 1101.25 | 65.05
298.15 K, x1 = 1 | 0.867 | 1101.52 | 89.95
303.15 K, x1 = 0.1 | – | 1053.73 | 1.963
303.15 K, x1 = 0.2001 | – | 1074.8 | 3.459
303.15 K, x1 = 0.3009 | – | 1084.06 | 5.545
303.15 K, x1 = 0.4004 | – | 1089.29 | 8.783
303.15 K, x1 = 0.5011 | – | 1092.64 | 13.08
303.15 K, x1 = 0.6505 | – | 1095.58 | 22.35
303.15 K, x1 = 0.7869 | – | 1097.24 | 35.45
303.15 K, x1 = 0.9022 | – | 1098.1 | 53.53
303.15 K, x1 = 1 | – | 1098.38 | 73.04
308.15 K, x1 = 0.1 | – | 1050.52 | 1.754
308.15 K, x1 = 0.2001 | – | 1071.53 | 3.088
308.15 K, x1 = 0.3009 | – | 1080.78 | 4.924
308.15 K, x1 = 0.4004 | – | 1086.02 | 7.715
308.15 K, x1 = 0.5011 | – | 1089.4 | 11.42
308.15 K, x1 = 0.6505 | – | 1092.38 | 19.25
308.15 K, x1 = 0.7869 | – | 1094.08 | 29.98
308.15 K, x1 = 0.9022 | – | 1094.97 | 44.59
308.15 K, x1 = 1 | – | 1095.26 | 60.25
313.15 K, x1 = 0.1 | – | 1047.4 | 1.579
313.15 K, x1 = 0.2001 | – | 1068.24 | 2.774
313.15 K, x1 = 0.3009 | – | 1077.49 | 4.401
313.15 K, x1 = 0.4004 | – | 1082.76 | 6.823
313.15 K, x1 = 0.5011 | – | 1086.16 | 10.04
313.15 K, x1 = 0.6505 | – | 1089.2 | 16.75
313.15 K, x1 = 0.7869 | – | 1090.94 | 25.8
313.15 K, x1 = 0.9022 | – | 1091.86 | 37.54
313.15 K, x1 = 1 | – | 1092.17 | 50.12
